Like-named read-outs stand apart in the source and are kept apart here.

The source of these data is patent US6331555A, “Treatment of platelet derived growth factor related disorders such as cancers” (priority 1999, dated 2001).

The nature of series [1]: Effects of A10 on body weight and organs. Format: in vivo, mouse. The following applies: 20 mg/kg/day, 100 day period. On the procedure: Vehicle control animals received IP administration of 100 μL PBTE:D5W (1:1, v:v) every day for 101 days, and untreated control animals received no treatments. There were eight animals in each group. Weights were measured on day 0 (one day prior to drug administration) and two times/week until experiment termination. The percent weight change was calculated as mean weight at each determination as compared to the mean weight on day 0.
However, after several weeks, the animals gained weight at a rate similar to untreated or vehicle-treated animals.

Another series has as its system RR-SRC peptide substrate. The conditions noted are these: cited from earlier work.
For the next series, the system named is SF767. The series can be described thus: Tumor cell line growth. In kind it is cell-based. As for the experimental part:
(§1) The assay measures protein content of acid-fixed cells using the counterion binding dye sulforhodamine B (SRB, Sigma). […] For other cell lines, the cells (2000 cells/well in 100 μL) were introduced into wells immediately after dispensing the drug solutions. After 4 days (37° C., 5% CO2) the monolayers were washed 3 times with PBS and fixed with 200 μL ice-cold 10% TCA (Fisher Scientific), and kept at 4° C. for 60 min. The TCA was removed and the fixed monolayers were washed 5 times with tap water and allowed to dry completely at room temperature on absorbent paper. The cellular protein was stained for 10 min with 100 μL 0.4% SRB dissolved in 1% acetic acid. After 5 washes with tap water, the dye was solubilized in 10 mM Tris base (100 μL per well) and absorbance read at 570 nm on a Dynatech plate reader model MR5000. Growth inhibition data are expressed as a percentage of absorbance detected in control wells which were treated with 0.4% DMSO alone. DMSO controls were not different from cells grown in regular growth medium. IC50 values were determined using a four parameter curve fit function.
(§2) For K562, DlB, L1210, 7TDl, T27A, and Colo320 DM cells, an MTT assay was used to assess cell growth. […] The cells were incubated at 37° C. for 4 days in a humidified 7% CO2 atmosphere. At the end point, […] of MTT (5 mg/mL in PBS, Sigma) was added to each well. The plates were incubated at 37° C. for 4 hr followed by addition of […] of solubilization solution (20% w/v of SDS in 50% N, N-dimethylformamide, pH 4.7) to each well. The plates were incubated overnight in a sealed container with a humidified atmosphere. The absorbance was determined at 570 nm wavelength with a reference wavelength of 630 nm using an ELISA plate reader.

The next series relates to Calu-3. Kind of series: Tumor cell line growth. The conditions noted are these: Homo sapiens, Calu-3, 96 h; lung, 4 days. In kind it is cell-based. On the procedure: as §1, §2
The next series relates to A549. Kind of series: Tumor cell line growth. In kind it is cell-based. The conditions noted are these: Homo sapiens, A549, 96 h; lung, 4 days. On the procedure: as §1, §2
The test system of a further series is HBL100. The series can be described thus: Tumor cell line growth. In kind it is cell-based. The following applies: Homo sapiens, HBL-100, 96 h; breast, 4 days. On the procedure: as §1, §2
The test system of the next series is K562. Kind of series: Tumor cell line growth. Format: cell-based. The following applies: Homo sapiens, K562, 96 h; leukemia, 4 days. As for the experimental part:
as §1, §2

In another series the test system is MCF7. The series can be described thus: Tumor cell line growth. The following applies: Homo sapiens, MCF7, 96 h; breast, 4 days. Format: cell-based. As for the experimental part:
as §1, §2

Another series relates to Calu-6. The series can be described thus: Tumor cell line growth. In kind it is cell-based. The conditions noted are these: Homo sapiens, Calu-6, 96 h; lung, 4 days. As for the experimental part: as §1, §2
Another series deals with SF763. The series can be described thus: Tumor cell line growth. In kind it is cell-based. As for the experimental part: as §1, §2
Another series concerns SKBR3. Kind of series: Tumor cell line growth. In kind it is cell-based. The conditions noted are these: Homo sapiens, SK-BR-3, 96 h; breast, 4 days. As for the experimental part: as §1, §2
The subject of another series is BT474. Kind of series: Tumor cell line growth. In kind it is cell-based. The conditions noted are these: Homo sapiens, BT-474, 96 h; breast, 4 days. On the procedure: as §1, §2
The test system of another series is T98G cells. Kind of series: PDGF-stimulated DNA synthesis, T98G cells (3H-thymidine). The conditions noted are these: 50 ng/ml PDGF-BB. In kind it is cell-based, human. As for the experimental part: T98G cells in log phase growth were transferred to 96-well dishes at 20,000 cells in 200 μL of serum-containing growth medium. After an overnight attachment period, the monolayers were washed twice with 200 μL MCDB 105 medium and the cells were cultured in 200 μL serum-free MCDB 105 medium for 24 hr. […] The plates were incubated at 37° C. at ambient CO2 for approximately 18 hr. ^3 H-thymidine (Amersham, 5 Ci/mmol) was added to each well to yield a final concentration of 5 μCi/mL and the plates were returned to 37° C. incubator. After 4 hr the medium was removed, the plates were put onto ice, and washed twice with 200 μL ice-cold PBS per well. Radioactivity incorporated into DNA was separated from unincorporated ^3 H-thymidine by precipitation with 100 μL ice-cold TCA for 10 min on ice. […] Six mL of cocktail (Ready Safe, Beckman) was added and radioactivity quantified in a Beckman liquid scintillation counter model LS6000SC. […]
The effect on basal ^3 H-thymidine incorporation was determined in the absence of PDGF. […] Radioactivity incorporated into DNA was separated from unincorporated ^3 H-thymidine by precipitation with […] ice-cold TCA for 10 minutes. […] Six ml of cocktail (Ready Safe, Beckman) was added and radioactivity quantified in a Beckman liquid scintillation counter model LS6000 SC.

For `Cc1oncc1C(=O)Nc1ccc(C(F)(F)F)cc1` [Compound A10, 5-methylisoxazole-4 carboxylic acid-(4-trifluromethyl)-anilide], in series [1], the mortality entry was “no mortality was observed”. Also, the “tyrosine phosphorylation of the RR-SRC peptide substrate” value with RR-SRC peptide substrate is recorded as “dose dependently, inhibited”. In addition, the IC50 with SF767 (SF767, 96 h, glioma, 4 days, read-out: IC50) is 87 µM; in the series with SF767 (SF767, PDGF-R expression -, read-out: SRB), 100 µM; in the series on Calu-3, greater than 400 µM; with A549, 118 µM; with HBL100, greater than 400 µM; in the series with K562, 26 µM. Further, the IC50 was 288 µM in the series with MCF7; 70 µM with Calu-6; 110 µM in the series with SF763 (SF763, 96 h, glioma, 4 days, read-out: IC50); greater than 100 µM in the series with SF763 (SF763, PDGF-R expression -, read-out: SRB); greater than 400 µM with SKBR3; greater than 100 µM with BT474. For the same molecule, the “PDGF-stimulated DNA synthesis” value with T98G cells is listed as “decreased PDGF-stimulated DNA synthesis in both types of cells, however a greater effect was seen in human T98G glioblastoma cells”.
